Data on seven compounds can be found in patent publication US8691864B2, “Agents useful for reducing amyloid precursor protein and treating dementia and methods of use thereof” (priority 2000, dated 2014).

One data set deals with ERK½. Description: phosphorylated ERK in SH-SY5Y cells, western blot. It counts as cell-based, human. The note with it: 5 μM, 0.5-4 hours. Here is the method: Fifteen μg of protein from each sample was mixed with the appropriate volume of 5× Laemmli buffer and boiled for 5 min at 100° C. The samples were loaded onto a 10% NuPAGE Bis-Tris gel in 1×NuPAGE MOPS SDS running buffer (NOVEX, San Diego, Calif.) and the proteins separated at 200 V for 45 min. The gels then were transferred onto nitrocellulose at 25 V for 1.5 h. The blots were blocked with 5% non-fat dry milk in 10 mM Tris, pH 8.0 containing 150 mM NaCl for 1 h and washed twice for 15 min in large volumes of TBST (10 mM Tris, pH 8.0, 150 mM NaCl and 0.05% Tween 20). […] Three final TBST washes of 20 min duration each were performed before the samples were detected by chemiluminescence and exposed to film, as per the manufacturer's instructions (Amersham Life Science Inc., Arlington Heights, Ill.). […] Densitometric quantification of blots was undertaken by using a […] and NIH-IMAGE (version 4.1).
SH-SY5Y cells were incubated with 5 μM (+)-phenserine or (−) phenserine for 0, 0.5, 1, 2 and 4 hours to determine the effect of the drug on βAPP protein levels. Western blots of cell lysates containing 15 μg of total protein per lane were analyzed. […] Stress activated transcription kinases, p38 and JNK, were not detected in the samples. […]
A general note: Immunoblotting shows a protein as a band on a membrane.

In a further data set the test system is total Aβ peptide. Description: total Aβ ELISA in SK-N-SH conditioned medium. To be noted: for Aβ peptide levels: cymserine and analogs. The format is cell-based, human. The method, then:
Total Aβ peptide levels in SH-SY-SY and SK-N-SH cultured samples were assayed by a sensitive ELISA (Suzuki et al., 1994). For total Aβ measurements in conditioned medium, the rabbit polyclonal antibody #3160 (1-40 residues of Aβ) was used as a capture antibody for all species of Aβ peptide (Aβ1-40 and Aβ1-42) while monoclonal antibody 4G8 (17-25 residues of Aβ) was used to detect Aβ peptide levels, and the values were expressed as the mean of six independent assays.
Likewise, (+)-phenserine reduced BAPP protein levels and total Aβ peptide levels at 16 hours (FIG. 5).
(ELISA stands for enzyme-linked immunosorbent assay.)

Data set [1] is described as follows: in vivo toxicity, i.p. administration to rodents. The note with it: 20 mg/kg. Here is the method:
This persisted for an hour and is related to central cholinergic overdrive. […] Animals were incapacitated at 20 mg/kg (N=3 per dose group), and 2 were killed when moribund.

The subject of the next data set is SK-N-SH cells. Description: LDH assay / cell number and viability, SK-N-SH cells. It counts as cell-based, human. The note with it: for toxicity by cell number and viability (LDH measurement): cymserine and analogs. From the text:
Measurement of released lactate dehydrogenase (LDH) in the conditioned medium was undertaken as a marker of cell viability and integrity, as described previously (Lahiri et al., 1997 and 1998).
This was not associated with cellular dysfunction, as determined by measurement of LDH levels versus untreated controls (FIG. 4C).

Data set [2] deals with cholinesterase. It counts as biochemical.
In data set [3] the test system is cholinesterase. The note with it: Greig et al., 1995; Brossi et al., 1996; cited from earlier work.
Data set [4] relates to βAPP. Kind of data set: βAPP protein levels in SH-SY5Y cell lysates, western blot. It counts as cell-based, human. To be noted: 5 μM, 0.5, 1, 2 and 4 hours. The method, then: (§1) SK-N-SH neuroblastoma cells were cultured on 60 mm dishes at a concentration of 3×10^6 cells, and SH-SY-5Y neuroblastoma and U373 astrocytorna cell lines were plated in 100 mm dishes at a concentration of 3×10^5 cells. The cells were allowed to grow in complete medium ([…], 2 mM glutamine in DMEM) for 3 to 4 days until they reached 70% confluence. To start the experiment, spent medium was removed and replaced with fresh medium (SKNSH—4 ml of DMEM+0.5% FBS; U373—5 ml of DMEM+2.5% FBS) containing 0, 5, or 50 μM phenserine. The cells were incubated at 37° C., 5% CO2 for the specific times indicated. Different media and sera were purchased from Life Technologies (Gaithersberg, Md.).
At each time point, the spent medium was collected and stored at −70° C. for later analysis of secretory βAPP levels. The cells were washed twice with PBS, pH 7.4 and incubated on ice for 15 min for lysis with 100 μL of lysis buffer (20 mM HEPES, 2 mM EGTA, 50 mM (β-glycophosphate, 1 mM sodium orthovanadate, 1% Triton X-100, 10% glycerol) containing appropriate protease inhibitors (2 mM PMSF, 100 μg/mL aprotinin, 25 μM leupeptin and 20 μg/mL soybean trypsin inhibitor). Each lysate was microcentrifuged for 15 min at 14 000 rpm. Protein levels of the supernatant were analyzed by the Bradford protein assay (BioRad, Melville, N.Y.). […]

Data set [5] has as its system βAPP. Description: βAPP levels in SK-N-SH cells (conditioned media and cell lysates), western blot. It counts as cell-based, human. The method, then:
as §1
At each time point, the spent medium was collected and stored at −70° C. for later analysis of secretory βAPP levels. The cells were washed twice with PBS, pH 7.4 and incubated on ice for 15 min for lysis with 100 μL of lysis buffer (20 mM HEPES, 2 mM EGTA, 50 mM (β-glycophosphate, 1 mM sodium orthovanadate, 1% Triton X-100, 10% glycerol) containing appropriate protease inhibitors (2 mM PMSF, 100 μg/mL aprotinin, 25 μM leupeptin and 20 μg/mL soybean trypsin inhibitor). Each lysate was microcentrifuged for 15 min at 14 000 rpm. Protein levels of the supernatant were analyzed by the Bradford protein assay (BioRad, Melville, N.Y.).
Fifteen μg of protein from each sample was mixed with the appropriate volume of 5× Laemmli buffer and boiled for 5 min at 100° C. The samples were loaded onto a 10% NuPAGE Bis-Tris gel in 1×NuPAGE MOPS SDS running buffer (NOVEX, San Diego, Calif.) and the proteins separated at 200 V for 45 min. The gels then were transferred onto nitrocellulose at 25 V for 1.5 h. The blots were blocked with 5% non-fat dry milk in 10 mM Tris, pH 8.0 containing 150 mM NaCl for 1 h and washed twice for 15 min in large volumes of TBST (10 mM Tris, pH 8.0, 150 mM NaCl and 0.05% Tween 20). Each blot was probed for 2 h with either 22C11 anti-βAPP-terminal antibody (Boehringer Mannheim, Indianapolis, Ind.), diluted to a concentration of 2.5 μg/mL or anti-activated ERK antibody (Promega, Madison, Wis.), diluted to a concentration of 25 ng/mL. The blots were washed twice for 15 min in TBST and placed in secondary antibody, anti-mouse IgG- or anti-rabbit IgG conjugated to horse radish peroxidase (Sigma, St. Louis, Mo.), for 30 min. Three final TBST washes of 20 min duration each were performed before the samples were detected by chemiluminescence and exposed to film, as per the manufacturer's instructions (Amersham Life Science Inc., Arlington Heights, Ill.). Additionally, all blots also were stained with Ponceau S (Sigma, St. Louis, Mo.) to determine equivalent loading of samples. Densitometric quantification of blots was undertaken by using a […] and NIH-IMAGE (version 4.1).
Western blots of conditioned media (FIG. 4A) and cell lysates (FIG. 4B) were probed; with a N-terminal directed anti-βAPP antibody.
3×10^6 SK-N-SH cells were plated on 60 mm dishes with DMEM containing 10% FBS. After 36 hours, cells were incubated with low serum medium for 1 hour. Thereafter, the medium was replaced with fresh low serum medium (0.5% FBS). […] The cells were incubated with and without phenserine for 16 hours. At the stated time (4, 8 and 16 hrs), 200 μl of medium was transferred from each dish for assessment of extracellular APP levels. At the end of experiments (16 hrs), the cells were lysed and collected for assessment of intracellular APP levels.
15 μL of medium samples and 15 μg of total protein from each lysed samples were loaded onto 10% trys-glycine gels, and the protein was separated at 150 V for 90 min. The gels were transferred onto polyvinylidene difluoride paper and probed with an affinity-purified anti-APP antibody (22C11), which recognizes the ectodomain of APP (residues 66-81). The APP signals were detected by chemiluminescence and exposed to film. The quantitation of the signals was determined by using a CD camera and NIH-IMAGE (version 4.0). […]

A further data set has as its system Aβ1-42. Description: Aβ1-42 levels in cerebral cortex of transgenic mice, ELISA. It counts as in vivo. The note with it: formic acid extraction, 3 weeks daily. The method, then:
(§2) Greater reductions could be achieved, but, as previously reported, doses of >5 mg/kg produce cholinergic side effects for the (−)-enantiomer but not for the (+)-enantiomer.
(§3) Samples of cerebral cortex from the transgenic mice then were analyzed for β amyloid peptide (Aβ) levels. Specifically, Aβ1-40 and Aβ1-42 levels, following formic acid extraction, were determined by ELISA assay (Suzuki et al., 1994).

The test system of another data set is Aβ1-40. Description: Aβ1-40 levels in cerebral cortex of transgenic mice, ELISA. The format is in vivo. The note with it: formic acid extraction, 3 weeks daily. Here is the method:
as §2, §3

For another data set, the system named is βAPP and Aβ. To be noted: neuronal cells in vitro; Lahiri et al., 1998; cited from earlier work.

With `CN1CCC2(C)c3cc(OC(=O)Nc4ccccc4)ccc3N(C)C12` (single isomer, unassigned; (+)) [(+)-phenserine, (+)-Phenserine], the “ERK½ (phosphorylated) detection” value in the data set on ERK½ is given as “peaked at the 30 minute to 1 hour period”. The “total Aβ peptide levels” value in the data set with total Aβ peptide (16 hours (FIG. 5)) was “reduced”. For the same compound, the clinical signs entry in [1] is “without clinical symptoms and appeared normal”. Also, the “toxicity by cell number and viability (LDH levels)” value in the data set with SK-N-SH cells (SK-N-SH, 16 hours (FIG. 5)) was “not associated with toxicity”. Besides, in the data set on cholinesterase [2], the “anticholinesterase activity / action” value is given as “devoid of anticholinesterase activity”. In the data set with cholinesterase [3], the anti-cholinesterase activity entry is listed as “no anti-cholinesterase activity”. In addition, the “βAPP levels in the cell lysates” value with βAPP [4] is “slowly decreased at each time point”. In addition, the BAPP protein levels entry with βAPP [5] (16 hours (FIG. 5)) is “reduced”.
Turning to `CC(C)c1ccc(NC(=O)Oc2ccc3c(c2)[C@]2(C)CCNC2N3)cc1` (single isomer, unassigned; (-)) [(−)-N^1,N^8-bisnorcymserine], the Aβ peptide levels entry with total Aβ peptide was “also reduced”. Further, in the data set on SK-N-SH cells (SK-N-SH), the “toxicity by cell number and viability (LDH measurement)” value (“toxicity … (LDH measurement)” for short) is reported as “no toxicity”. The “toxicity at higher concentrations” value with SK-N-SH cells is “toxic”. The βAPP protein levels entry with βAPP [5] (cymserine and analogs (FIG. 7)) was “reduced βAPP protein levels”.
Turning to `CC(C)c1ccc(NC(=O)Oc2ccc3c(c2)[C@@]2(C)CCN(C)[C@H]2N3C)cc1` [(+)-cymserine, (+)-Cymserine], the Aβ peptide levels result in the data set with total Aβ peptide is listed as “also reduced”. For the same compound, in the data set with SK-N-SH cells (SK-N-SH), the “toxicity … (LDH measurement)” value is listed as “no toxicity”. In addition, the “anticholinesterase activity / action” value in the data set with cholinesterase [2] is “devoid of it”. The βAPP protein levels entry in the data set on βAPP [5] (cymserine and analogs (FIG. 7)) is reported as “reduced βAPP protein levels”.
As for `CC(C)c1ccc(NC(=O)Oc2ccc3c(c2)[C@]2(C)CCN(CCc4ccccc4)[C@@H]2N3C)cc1` [(−)-N^1-phenethylcymserine], in the data set on total Aβ peptide, the Aβ peptide levels result is listed as “also reduced”. For the same compound, the “toxicity … (LDH measurement)” value with SK-N-SH cells (SK-N-SH) was “no toxicity”. Further, the “toxicity at higher concentrations” value in the data set on SK-N-SH cells is reported as “toxic”. For the same compound, the “reduction of Aβ1-42 levels” value with Aβ1-42 is recorded as 47%. The “reduction of Aβ1-40 levels” value with Aβ1-40 came out at 54%. In addition, the βAPP protein levels entry in the data set on βAPP [5] (cymserine and analogs (FIG. 7)) is listed as “reduced βAPP protein levels”.
Turning to `CC(C)c1ccc(NC(=O)Oc2ccc3c(c2)[C@]2(C)CCN(C)[C@@H]2N3C)cc1` [(−)-cymserine], the Aβ peptide levels result with total Aβ peptide is “also reduced”. Besides, in the data set with SK-N-SH cells (SK-N-SH), the “toxicity … (LDH measurement)” value is on record as “no toxicity”. In the data set with cholinesterase [2], the “anticholinesterase activity / action” value is “possessed anticholinesterase action”. In addition, in the data set with βAPP [5] (cymserine and analogs (FIG. 7)), the βAPP protein levels entry is reported as “reduced βAPP protein levels”.
On to `CNC(=O)Oc1ccc2c(c1)[C@]1(C)CCN(C)[C@@H]1N2C` [(−)-physostigmine, reference compound], for which the “total Aβ peptide levels” value in the data set with total Aβ peptide (50 μM) is recorded as “no reduction or change”. Moreover, in the data set on βAPP [5] (50 μM), the βAPP protein levels result is on record as “no reduction or change”.
For the compound `Nc1c2c(nc3ccccc13)CCCC2` [tacrine], the “βAPP and Aβ” value in the data set with βAPP and Aβ is “decrease βAPP and Aβ”.
